The test system of one series is AML12. The series can be described thus: CCK-8 cell viability, AML-12 normal liver cell line. The series is classed as cell-based. The settings on record: for IC50: serum-free medium, 24 hours, CCK-8, mean ± SD of 2 to 3 experiments. The method, then:
(§1) CCK-8 (Cell counting kit-8) is analyzed using a highly water-soluble tetrazolium salt-[…]. [2-(2-methoxy-4-nitrophenyl)-3-(4-nitrophenyl)(2,4-disulfophenyl)-2H-tetrazolium, monosodium salt] is reduced under the presence of an electron medium to produces a water-soluble formazan orange dye. The amount of the formazan dye produced by dehydrogenase in a cell is directly proportional to the number of living cells.
(§2) In an experimental method for evaluating the properties of the compounds according to the present disclosure, various cancer cell lines derived from humans and normal cell lines of each tissue derived from humans and mice were used in this experiment. A complete growth medium corresponding to each cell line and having 10% of heat-inactivated FBS added thereto was used to maintain corresponding cells. The maintained cells were suspended in a volume of 200 μl at a density of 1 or 1.5×10^4 cells and planted in each well of a 96 well plate. The cells were attached to a 37° C. and 5% CO2 incubator for more than 14 hours, and we waited for a stable state. The next day, we removed the medium from the well. 100 μl of serum-free medium containing drugs of various concentrations (0 (control), 2.5, 5, 10, 20, 30, 40, 50, 100, 200 μM) was added to each well and the cells was cultured therein. On 22 hours after the incubation, 10 μl of CCK-8 solution was added to each well, followed by incubation for 2 hours. A plate on which the culture was completed was measured in terms of absorbance at 450 nm using a microplate reader.
(§3) Cell Viability Calculation:
(§4) • A: Absorbance value measured in a control well • B: Absorbance value measured in a well containing the drug
(§5) In Table 1 below, each compound was applied to the cells at 0, 2.5, 5, 10, 20, 30, 40, 50, 100, and 200 μM, and the cells was cultured in a medium free of serum for 24 hours. The measured absorbance value was converted to a % value based on a value of 0, such that a IC50 value was calculated. Each experiment was performed 2 to 3 times and a standard deviation value was obtained.

A further series concerns HT-29 cell line. The series can be described thus: CCK-8 cell viability, HT-29 colorectal cancer cell line. Type of series: cell-based, human. The settings on record: serum-free medium, 24 hours, mean ± SD of 2 to 3 experiments. Here is the method: (§6) To identify the anticancer effect of the compounds L1, L2, and L3 according to Examples 1 to 3 of the present disclosure, and the complexes L1Pt, L2Pt, and L3Pt according to Examples 4 to 6 of the disclosure, the cell viability analysis of cancer cells using CCK-8 was performed on several cancer cell lines (colorectal cancer cell line (HT-29 cell line), breast cancer cell line (MCF-7 and MDA-MB-231), cervical cancer cell line (HeLa cell line), liver cancer cell line (Huh-7 and HepG2), brain glioma cell line (C6), lung cancer (A549), prostate cancer (PC3), kidney cancer (Caki-2), normal liver cell line (AML-12), embryonic kidney cell line (HEK-293), neural stem cell line (NE-4C) and normal breast epithelial cell line (MCF10a)).
as §1, §2, §3, §4, §5

For a further series, the system named is HeLa cell line. The series can be described thus: CCK-8 cell viability, HeLa cervical cancer cell line. Type of series: cell-based, human. The conditions noted are these: serum-free medium, 24 hours, mean ± SD of 2 to 3 experiments. The method, then: as §6, §1, §2, §3, §4, §5
In a further series the test system is Huh-7. Put plainly: CCK-8 cell viability, Huh-7 liver cancer cell line. The settings on record: serum-free medium, 24 hours, mean ± SD of 2 to 3 experiments. Type of series: cell-based, human. The method, then: as §6, §1, §2, §3, §4, §5
A further series relates to HEK-293. The series can be described thus: CCK-8 cell viability, HEK-293 embryonic kidney cell line. The series is classed as cell-based. The settings on record: serum-free medium, 24 hours, mean ± SD of 2 to 3 experiments, read-out: IC50 HEK293 (embryonic kidney). The method, then: as §6, §1, §2, §3, §4, §5
In a further series the test system is A549. The series can be described thus: CCK-8 cell viability, A549 lung cancer cell line. The series is classed as cell-based, human. The settings on record: serum-free medium, 24 hours, mean ± SD of 2 to 3 experiments. The method, then:
as §6, §1, §2, §3, §4, §5

The next series relates to PC3. Put plainly: CCK-8 cell viability, PC3 prostate cancer cell line. The series is classed as cell-based, human. The settings on record: serum-free medium, 24 hours, mean ± SD of 2 to 3 experiments. The method, then: as §6, §1, §2, §3, §4, §5
In a further series the test system is C6. Put plainly: CCK-8 cell viability, C6 brain glioma cell line. Type of series: cell-based, human. The settings on record: serum-free medium, 24 hours, mean ± SD of 2 to 3 experiments. Here is the method: as §6, §1, §2, §3, §4, §5
In a further series the test system is MDA-MB-231. The series can be described thus: CCK-8 cell viability, MDA-MB-231 breast cancer cell line. The conditions noted are these: serum-free medium, 24 hours, mean ± SD of 2 to 3 experiments. Type of series: cell-based, human. Here is the method: as §6, §1, §2, §3, §4, §5
The next series deals with Caki-2. The series can be described thus: CCK-8 cell viability, Caki-2 kidney cancer cell line. The series is classed as cell-based, human. The settings on record: serum-free medium, 24 hours, mean ± SD of 2 to 3 experiments. Here is the method:
as §6, §1, §2, §3, §4, §5

The test system of series [1] is several cancer cell lines. Put plainly: CCK-8 cell viability, panel of cancer cell lines compared in words (FIGS. 3a to 3e). The series is classed as cell-based, human. The settings on record: Log IC50, FIGS. 3a to 3e; no comparator. Here is the method:
as §6, §1, §2
Further, FIGS. 3a to 3e show a graph in which a IC50 value which is obtained based on 2 to 3 times executions of the cell viability analysis is converted to a Log IC50 value. […] The comparative reliability values for BTA were expressed as […], ##p<0.01, and ## #p<0.001. A red line represents the value of cisplatin. A blue line represents the value of BTA.

A further series concerns MCF10a. The series can be described thus: CCK-8 cell viability, MCF10a normal breast epithelial cell line. Type of series: cell-based. The settings on record: for IC50: serum-free medium, 24 hours, CCK-8, mean ± SD of 2 to 3 experiments. Here is the method: as §6, §1, §2, §3, §4, §5
Another series relates to HepG2. The series can be described thus: CCK-8 cell viability, HepG2 liver cancer cell line. Type of series: cell-based, human. The settings on record: serum-free medium, 24 hours, mean ± SD of 2 to 3 experiments. Here is the method:
as §6, §1, §2, §3, §4, §5

A further series has as its system MCF-7. Put plainly: CCK-8 cell viability, MCF-7 breast cancer cell line. Type of series: cell-based, human. The conditions noted are these: serum-free medium, 24 hours, mean ± SD of 2 to 3 experiments. Here is the method: as §6, §1, §2, §3, §4, §5
For a further series, the system named is NE-4C. Put plainly: CCK-8 cell viability, NE-4C neural stem cell line. The series is classed as cell-based. The settings on record: for IC50: serum-free medium, 24 hours, CCK-8, mean ± SD of 2 to 3 experiments, read-out: IC50 NC-4C (Neural stem cell). The method, then: as §1, §2, §3, §4, §5

The record followed here is patent US12098147B2, “Compound having novel structure, complex comprising same, anti-cancer pharmaceutical composition, and anti-cancer drug” (ETNOVA THERAPEUTICS CORP., priority 2018, dated 2024).

Where only a bound is given, the exact number is not on record here.

By IC50 is commonly meant the point on the concentration scale where inhibition reaches its midpoint. With `O=C(Nc1ccc(-c2nc3ccccc3s2)cc1)C1CNC(c2ccccn2)=N1.[Cl][Pt][Cl]` (stereo not drawn) [Example L3Pt], the “toxicity against normal hepatocytes, in words” value with AML12 (normal hepatocytes (AML12), FIG. 4) is “did not exhibit liver cytotoxicity”. Further, the half-inhibitory concentration (IC50) in the series with AML12 is above 500 µM; with HT-29 cell line, above 500 µM; in the series with HeLa cell line it was above 500 µM; in the series with Huh-7, 173 ± 24.3 µM; in the series with HEK-293, 206 ± 7.45 µM; in the series on A549 it was above 500 µM. The half-inhibitory concentration (IC50) with PC3, in the series with C6, in the series with MDA-MB-231, with Caki-2, in the series with MCF10a and in the series with HepG2 was above 500 µM each time. Moreover, the IC50 with MCF-7 was above 500 µM; with NE-4C, 32.4 ± 6.02 µM. For the same molecule, the “effect on cancer cell lines, in words” value in series [1] is listed as “only exerts cell toxicity effects on liver cancer”. The “cytotoxicity against breast epithelial cells, in words” value in the series on MCF10a (breast epithelial cells (MCF10a), FIG. 4) was “weaker cytotoxicity or no cytotoxicity than cisplatin and BTA did”. In the series on NE-4C (brain neurons (NE-4C), FIG. 4), the “toxicity against brain neurons, in words” value was “greater toxicity than BTA did”.
As to “benzothiazole aniline [BTA, reference compound]”, the IC50 with AML12 is above 500 µM; in the series with HT-29 cell line, 275 ± 5.03 µM; with HeLa cell line, 76.4 ± 23.4 µM; in the series with Huh-7, 406 ± 35.7 µM; in the series with HEK-293 it was above 500 µM; with A549, above 500 µM. Also, the IC50 is 182 ± 7.79 µM in the series with PC3; 425 ± 47.8 µM in the series on C6; above 500 µM in the series with MDA-MB-231; 463 ± 44.1 µM in the series with Caki-2; 401 ± 136 µM in the series with MCF10a; 52 ± 5.71 µM in the series on HepG2. The results for the IC50 with MCF-7 and in the series with NE-4C were 104 ± 28.6 µM and 60.9 ± 2.93 µM, respectively. In addition, in series [1], the “effect on cancer cell lines, in words” value was “did not have greater effect on colorectal cancer, brain glioma, and lung cancer”.
